Data reported in BindingDB's records for doi:10.1016/j.chembiol.2011.11.010 (Harvard Medical School, 2012).

What was measured:
Test in all cases: JNK Kinase Assay
[1] = target: Mitogen-activated protein kinase 8 (Homo sapiens, UniProt P45983)
From the text: (§1) The binding results were confirmed by measuring IC50 for the inhibition of JNK kinase activity by using Z'-LYTE assay format.

[2] = target: Mitogen-activated protein kinase 9 (Homo sapiens, UniProt P45984)
From the text: as §1

[3] = target: Mitogen-activated protein kinase 10 (Homo sapiens, UniProt P53779)
Chain of Mitogen-activated protein kinase 10 (P53779 whole entry): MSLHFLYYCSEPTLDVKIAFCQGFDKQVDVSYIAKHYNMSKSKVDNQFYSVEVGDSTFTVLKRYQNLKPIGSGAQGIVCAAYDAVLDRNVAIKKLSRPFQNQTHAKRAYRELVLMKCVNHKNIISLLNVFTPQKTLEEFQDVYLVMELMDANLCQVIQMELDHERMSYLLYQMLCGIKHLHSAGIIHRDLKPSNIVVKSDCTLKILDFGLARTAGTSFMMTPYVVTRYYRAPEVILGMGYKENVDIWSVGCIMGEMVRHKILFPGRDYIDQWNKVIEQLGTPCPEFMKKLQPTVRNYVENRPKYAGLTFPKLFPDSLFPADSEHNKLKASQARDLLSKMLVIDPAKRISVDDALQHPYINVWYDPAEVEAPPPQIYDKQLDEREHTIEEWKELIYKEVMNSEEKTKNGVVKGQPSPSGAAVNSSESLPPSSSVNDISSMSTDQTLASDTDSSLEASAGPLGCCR
From the text: as §1

Chain of Mitogen-activated protein kinase 9 (P45984 whole entry): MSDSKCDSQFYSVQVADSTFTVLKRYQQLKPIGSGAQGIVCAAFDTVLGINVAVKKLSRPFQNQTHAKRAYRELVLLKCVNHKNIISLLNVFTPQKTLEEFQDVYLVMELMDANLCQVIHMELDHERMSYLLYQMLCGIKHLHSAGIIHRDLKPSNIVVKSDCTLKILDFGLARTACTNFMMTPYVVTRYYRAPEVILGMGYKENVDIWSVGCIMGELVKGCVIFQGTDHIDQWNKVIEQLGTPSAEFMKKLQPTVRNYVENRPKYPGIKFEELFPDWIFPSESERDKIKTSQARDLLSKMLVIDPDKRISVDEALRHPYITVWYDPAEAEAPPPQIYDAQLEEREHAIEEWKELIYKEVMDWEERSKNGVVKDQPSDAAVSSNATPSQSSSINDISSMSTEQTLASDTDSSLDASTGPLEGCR
Chain of Mitogen-activated protein kinase 8 (P45983 whole entry): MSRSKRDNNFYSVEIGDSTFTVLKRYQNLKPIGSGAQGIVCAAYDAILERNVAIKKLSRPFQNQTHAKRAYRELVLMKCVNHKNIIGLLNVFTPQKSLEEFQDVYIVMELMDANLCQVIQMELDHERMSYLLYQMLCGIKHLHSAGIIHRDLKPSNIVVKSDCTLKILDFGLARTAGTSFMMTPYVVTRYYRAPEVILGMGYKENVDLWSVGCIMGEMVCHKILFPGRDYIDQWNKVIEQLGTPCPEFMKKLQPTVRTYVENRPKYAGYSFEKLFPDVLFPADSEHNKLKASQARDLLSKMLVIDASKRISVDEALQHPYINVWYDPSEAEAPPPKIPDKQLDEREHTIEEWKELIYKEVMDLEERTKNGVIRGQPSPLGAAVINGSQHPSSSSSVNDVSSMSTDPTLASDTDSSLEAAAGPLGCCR

Row | IC50 [1] | IC50 [2] | IC50 [3] | Compound
1 | 2390 nM | 5460 nM | 7220 nM | CN(C)C/C=C/C(=O)NCc1ccc(C(=O)Nc2cccc(Nc3nccc(-c4cccnc4)n3)c2)cc1 [JNK-IN-4]
2 | 13 nM | 11.3 nM | 11 nM | CN(C)C/C=C/C(=O)Nc1cccc(C(=O)Nc2ccc(Nc3nccc(C(C#N)c4nc5ccccc5s4)n3)cc2)c1 (configuration not stated) [JNK-IN-12]
3 | 809 nM | 1140 nM | – | CN(C)C/C=C/C(=O)Nc1ccc(C(=O)Nc2cccc(Nc3nccc(-c4cccnc4)n3)c2)cc1 [JNK-IN-2]
4 | – | – | 190 nM | O=C1c2ccccc2-c2n[nH]c3cccc1c23
5 | > 10000 nM | > 10000 nM | > 10000 nM | CN(C)C/C=C/C(=O)Nc1ccc(C(=O)Nc2cccc(Oc3nccc(-c4cccnc4)n3)c2)cc1 [JNK-IN-3]
6 | 150 nM | 220 nM | – | N#CC(c1ccnc(NCCc2cccnc2)n1)c1nc2ccccc2s1 (configuration not stated) [[3H-Benzothiazol-(2Z)-ylidene]-[2-(2-pyridin-3-yl-ethylamino)-pyrimidin-4-yl]-acetonitrile]

Row | Compound | IC50 [1] | IC50 [2] | IC50 [3]
7 | Cc1ccc(NC(=O)c2ccc(NC(=O)/C=C/CN(C)C)cc2)cc1Nc1nccc(-c2cccnc2)n1 [JNK-IN-1] | 7780 nM | 4230 nM | 7750 nM
